Kd data for 11 compounds are collected here from patent US20250186541A1, “DLL3 TARGETING PEPTIDES AND CONSTRUCTS THEREOF” (MARIANA ONCOLOGY INC., priority 2023, published 2025).

The structures appear in SMILES notation. Numbered stars: 1 amine (or outer) side, 2 acyl side, 3 side chain; on linkers, the order of the positions; unused ones are H or OH. Bridge positions count the residues as written; N and C are the ends. Square brackets hold non-standard residues; d marks the D form. Peptide text beside a SMILES is read from it. * marks the point of attachment. Ala(piperidin-4-yl) = O=C([C@H](CC1CCN([*:3])CC1)N[*:1])[*:2]; DOTA = O=C(O)CN1CCN(CC(=O)O)CCN(CC(=O)*)CCN(CC(=O)O)CC1; Trp(7-Me) = Cc1cccc2c(C[C@H](N)C(=O)O)c[nH]c12; Phe(4-CH2NH2) = NCc1ccc(C[C@H](N)C(=O)O)cc1; 1Nal = N[C@@H](Cc1cccc2ccccc12)C(=O)O; 2Nal = N[C@@H](Cc1ccc2ccccc2c1)C(=O)O; NMetBuAla = CN[C@@H](CC(C)(C)C)C(=O)O; NMeChg = CN[C@H](C(=O)O)C1CCCCC1; tBuAla = CC(C)(C)C[C@H](N)C(=O)O; Chg = N[C@H](C(=O)O)C1CCCCC1; αMeP = C[C@@]1(C(=O)O)CCCN1; Ahx = NCCCCCC(=O)O

This assay concerns the target T1, human DLL3 (Homo sapiens, UniProt Q9NYJ7).
T1 construct: biotin (biotinylated)
T1 sequence (Q9NYJ7 27-618): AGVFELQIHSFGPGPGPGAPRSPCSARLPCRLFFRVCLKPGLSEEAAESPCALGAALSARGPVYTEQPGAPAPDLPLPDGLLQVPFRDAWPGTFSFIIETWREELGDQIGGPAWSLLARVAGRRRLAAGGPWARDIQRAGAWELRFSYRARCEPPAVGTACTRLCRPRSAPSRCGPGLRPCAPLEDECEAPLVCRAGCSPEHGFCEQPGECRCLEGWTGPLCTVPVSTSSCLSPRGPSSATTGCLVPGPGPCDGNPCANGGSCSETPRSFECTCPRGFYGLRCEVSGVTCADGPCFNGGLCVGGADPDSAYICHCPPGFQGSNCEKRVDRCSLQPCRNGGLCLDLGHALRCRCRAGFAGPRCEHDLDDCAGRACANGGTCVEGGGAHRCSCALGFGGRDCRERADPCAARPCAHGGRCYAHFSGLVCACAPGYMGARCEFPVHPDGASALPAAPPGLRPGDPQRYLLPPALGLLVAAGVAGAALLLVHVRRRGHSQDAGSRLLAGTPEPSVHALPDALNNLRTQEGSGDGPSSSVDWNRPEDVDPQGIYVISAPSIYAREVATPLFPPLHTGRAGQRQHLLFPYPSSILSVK
In words: Affinity determination by Surface Plasmon Resonance (SPR), Biacore, 1:1 binding model. The conditions noted are these: biotinylated human DLL3 on streptavidin chip, 25° C.; NB = nonbinding. The method, boiled down: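 SPR with biotinylated human DLL3 captured on a streptavidin chip, with a reference surface subtracted. Samples were injected at several concentrations at 100 μL/min in phosphate buffer with 137 mM NaCl, 2.7 mM KCl, 0.05% P20 and 2% DMSO. Kinetic and affinity constants came from a 1:1 binding fit.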

As for `CC(=O)N[C@H](C)C(=O)N[C@@H](CO)C(=O)N[C@@H](CC(=O)O)C(=O)N[C@H]1CSSC[C@@H](C(=O)N2CCC[C@@]2(C)C(=O)N[C@@H](Cc2ccccc2)C(=O)N[C@@H](CC(=O)O)C(=O)N[C@H](CCCCNC(=O)CN2CCN(CC(=O)O)CCN(CC(=O)O)CCN(CC(=O)O)CC2)C(N)=O)NC(=O)[C@H](CC(N)=O)NC(=O)[C@H](Cc2ccc3ccccc3c2)NC(=O)[C@H](CCC(N)=O)NC(=O)[C@H](CC(C)(C)C)N(C)C(=O)[C@H](Cc2cccc3ccccc23)NC1=O` [compound 171, Ac-(D-Ala)-S-D-C(3)-(1Nal)-(NMe-Tba)-Q-(2Nal)-N-C(3)-(aMe-P)-F -D-[D-Lys(DOTA)]-NH2] (Ac-[dA]SDC[1Nal][NMetBuAla]Q[2Nal]NC[αMeP]FD[dK](DOTA)-NH2; disulfide 4-10), binding was put at a Kd of 1.21 nM.
In turn, `CC(=O)N[C@H](C)C(=O)N[C@@H](CO)C(=O)N[C@@H](CC(=O)O)C(=O)N[C@H]1CSSC[C@@H](C(=O)N2CCC[C@@]2(C)C(=O)N[C@@H](Cc2ccccc2)C(=O)N[C@@H](CC(=O)O)C(=O)N[C@H](CCCCNC(=O)CN2CCN(CC(=O)O)CCN(CC(=O)O)CCN(CC(=O)O)CC2)C(N)=O)NC(=O)[C@H](CC(N)=O)NC(=O)[C@H](Cc2ccc3ccccc3c2)NC(=O)[C@H](CCC(N)=O)NC(=O)[C@H](CC(C)(C)C)NC(=O)[C@H](Cc2cccc3ccccc23)NC1=O` [compound 172, Ac-(D-Ala)-S-D-C(3)-(1Nal)-(t-Bu-Ala)-Q-(2Nal)-N-C(3)-(aMe-P)-F -D-[D-Lys(DOTA)]-NH2] (Ac-[dA]SDC[1Nal][tBuAla]Q[2Nal]NC[αMeP]FD[dK](DOTA)-NH2; disulfide 4-10) displayed a Kd of 0.037 nM.
Take `CC(=O)N[C@H](C)C(=O)N[C@@H](CO)C(=O)N[C@@H](CC(=O)O)C(=O)N[C@H]1CSSC[C@@H](C(=O)N2CCC[C@@]2(C)C(=O)N[C@@H](Cc2ccccc2)C(=O)N[C@@H](CC(=O)O)C(=O)N[C@H](CCCCNC(=O)CN2CCN(CC(=O)O)CCN(CC(=O)O)CCN(CC(=O)O)CC2)C(N)=O)NC(=O)[C@H](CC(N)=O)NC(=O)[C@H](Cc2ccc3ccccc3c2)NC(=O)[C@H](CCC(N)=O)NC(=O)[C@H](CC(C)(C)C)NC(=O)[C@H](Cc2c[nH]c3c(C)cccc23)NC1=O` [compound 173, Ac-(D-Ala)-S-D-C(3)-(7Me-W)-(t-Bu-Ala)-Q-(2Nal)-N-C(3)-(aMe-P)-F -D-[D-Lys(DOTA)]-NH2] (Ac-[dA]SDC[Trp(7-Me)][tBuAla]Q[2Nal]NC[αMeP]FD[dK](DOTA)-NH2; disulfide 4-10): binding was characterised by a dissociation constant (Kd) of 0.48 nM.
To `CC(=O)N[C@H](C(=O)N[C@@H](CO)C(=O)N[C@@H](CC(=O)O)C(=O)N[C@H]1CSSC[C@@H](C(=O)N2CCC[C@@]2(C)C(=O)N[C@@H](Cc2ccccc2)C(=O)N[C@@H](CC(=O)O)C(N)=O)NC(=O)[C@H](CC(N)=O)NC(=O)[C@H](Cc2ccc3ccccc3c2)NC(=O)[C@H](CCCCNC(=O)CN2CCN(CC(=O)O)CCN(CC(=O)O)CCN(CC(=O)O)CC2)NC(=O)[C@H](CC(C)(C)C)NC(=O)[C@H](Cc2cccc3ccccc23)NC1=O)C1CCCCC1` [compound 174, Ac-(Chg)-S-D-C(3)-(1Nal)-(t-Bu-Ala)-[L-Lys(DOTA)]-(2Nal)-N-C(3)-(aMe-P)-F -D-CONH2] (Ac-[Chg]SDC[1Nal][tBuAla]K(DOTA)[2Nal]NC[αMeP]FD-NH2; disulfide 4-10) belongs 0.23 nM; to `C[C@@H](NC(=O)CN1CCN(CC(=O)O)CCN(CC(=O)O)CCN(CC(=O)O)CC1)C(=O)N[C@@H](CO)C(=O)N[C@@H](CC(=O)O)C(=O)N[C@H]1CSSC[C@@H](C(=O)N2CCC[C@@]2(C)C(=O)N[C@@H](Cc2ccccc2)C(=O)N[C@@H](CC(=O)O)C(N)=O)NC(=O)[C@H](CC(N)=O)NC(=O)[C@H](Cc2ccc3ccccc3c2)NC(=O)[C@H](CC2CCNCC2)NC(=O)[C@H](CC(C)(C)C)NC(=O)[C@H](Cc2cccc3ccccc23)NC1=O` [compound 175, DOTA-(D-Ala)-S-D-C(3)-(1Nal)-(t-Bu-Ala)-[3-(4-piperidinyl)-Ala]-(2Nal)-N-C(3)-(aMe-P)-F -D-CONH2] ({DOTA}-[dA]SDC[1Nal][tBuAla][Ala(piperidin-4-yl)][2Nal]NC[αMeP]FD-NH2; disulfide 4-10), 0.067 nM.
Take `C[C@@H](NC(=O)CCCCCNC(=O)CN1CCN(CC(=O)O)CCN(CC(=O)O)CCN(CC(=O)O)CC1)C(=O)N[C@@H](CO)C(=O)N[C@@H](CC(=O)O)C(=O)N[C@H]1CSSC[C@@H](C(=O)N2CCC[C@@]2(C)C(=O)N[C@@H](Cc2ccccc2)C(=O)N[C@@H](CC(=O)O)C(N)=O)NC(=O)[C@H](CC(N)=O)NC(=O)[C@H](Cc2ccc3ccccc3c2)NC(=O)[C@H](CC2CCNCC2)NC(=O)[C@H](CC(C)(C)C)NC(=O)[C@H](Cc2cccc3ccccc23)NC1=O` [compound 177, DOTA-PEG4-S-D-C(3)-(1Nal)-(t-Bu-Ala)-[3-(4-piperidinyl)-Ala]-(2Nal)-N-C(3)-(aMe-P)-F -D-CONH2] ({DOTA-Ahx}-[dA]SDC[1Nal][tBuAla][Ala(piperidin-4-yl)][2Nal]NC[αMeP]FD-NH2; disulfide 4-10): the Kd worked out at 0.098 nM.
On to `CC(=O)N[C@@H](CO)C(=O)N[C@@H](CC(=O)O)C(=O)N[C@H]1CSSC[C@@H](C(=O)N2CCC[C@@]2(C)C(=O)N[C@@H](Cc2ccccc2)C(=O)N[C@@H](CC(=O)O)C(=O)N[C@H](CCCCNC(=O)CN2CCN(CC(=O)O)CCN(CC(=O)O)CCN(CC(=O)O)CC2)C(N)=O)NC(=O)[C@H](CC(N)=O)NC(=O)[C@H](Cc2ccc3ccccc3c2)NC(=O)[C@H](CC2CCNCC2)NC(=O)[C@H](CC(C)(C)C)N(C)C(=O)[C@H](Cc2cccc3ccccc23)NC1=O` [compound 178, Ac-S-D-C(3)-(1Nal)-(NMe-Tba)-[3-(4-piperidinyl)-Ala]-(2Nal)-N-C(3)-(aMe-P)-F -D-[D-Lys(DOTA)]-NH2] (Ac-SDC[1Nal][NMetBuAla][Ala(piperidin-4-yl)][2Nal]NC[αMeP]FD[dK](DOTA)-NH2; disulfide 3-9), for which the affinity, expressed as Kd, was 2.43 nM.
For the compound `CC(=O)N[C@@H](CO)C(=O)N[C@@H](CC(=O)O)C(=O)N[C@H]1CSSC[C@@H](C(=O)N2CCC[C@@]2(C)C(=O)N[C@@H](Cc2ccccc2)C(=O)N[C@@H](CC(=O)O)C(=O)N[C@H](CCCCNC(=O)CN2CCN(CC(=O)O)CCN(CC(=O)O)CCN(CC(=O)O)CC2)C(N)=O)NC(=O)[C@H](CC(N)=O)NC(=O)[C@H](Cc2ccc3ccccc3c2)NC(=O)[C@H](CC2CCNCC2)NC(=O)[C@H](C2CCCCC2)N(C)C(=O)[C@H](Cc2cccc3ccccc23)NC1=O` [compound 179, Ac-S-D-C(3)-(1Nal)-(NMe-Chg)-[3-(4-piperidinyl)-Ala]-(2Nal)-N-C(3)-(aMe-P)-F -D-[D-Lys(DOTA)]-NH2] (Ac-SDC[1Nal][NMeChg][Ala(piperidin-4-yl)][2Nal]NC[αMeP]FD[dK](DOTA)-NH2; disulfide 3-9), the Kd was greater than 30 nM.
Turning to `CC(=O)N[C@@H](CC1CCNCC1)C(=O)N[C@@H](CO)C(=O)N[C@@H](CC(=O)O)C(=O)N[C@H]1CSSC[C@@H](C(=O)N2CCC[C@@]2(C)C(=O)N[C@@H](Cc2ccccc2)C(=O)N[C@@H](CC(=O)O)C(N)=O)NC(=O)[C@H](CC(N)=O)NC(=O)[C@H](Cc2ccc3ccccc3c2)NC(=O)[C@H](Cc2ccc(CNC(=O)CN3CCN(CC(=O)O)CCN(CC(=O)O)CCN(CC(=O)O)CC3)cc2)NC(=O)[C@H](CC(C)(C)C)N(C)C(=O)[C@H](Cc2cccc3ccccc23)NC1=O` [compound 180, Ac-[3-(4-piperidinyl)-Ala]-S-D-C(3)-(1Nal)-(NMe-Tba)-[PAF(DOTA)]-(2Nal)-N-C(3)-(aMe-P)-F -D-CONH2] (Ac-[Ala(piperidin-4-yl)]SDC[1Nal][NMetBuAla][Phe(4-CH2NH2)](DOTA)[2Nal]NC[αMeP]FD-NH2; disulfide 4-10), the Kd is greater than 30 nM.
To `CC(=O)N[C@@H](CC1CCNCC1)C(=O)N[C@@H](CO)C(=O)N[C@@H](CC(=O)O)C(=O)N[C@H]1CSSC[C@@H](C(=O)N2CCC[C@@]2(C)C(=O)N[C@@H](Cc2ccccc2)C(=O)N[C@@H](CC(=O)O)C(N)=O)NC(=O)[C@H](CC(N)=O)NC(=O)[C@H](Cc2ccc3ccccc3c2)NC(=O)[C@H](Cc2ccc(CNC(=O)CN3CCN(CC(=O)O)CCN(CC(=O)O)CCN(CC(=O)O)CC3)cc2)NC(=O)[C@H](C2CCCCC2)N(C)C(=O)[C@H](Cc2cccc3ccccc23)NC1=O` [compound 181, Ac-[3-(4-piperidinyl)-Ala]-S-D-C(3)-(1Nal)-(NMe-Chg)-[PAF(DOTA)]-(2Nal)-N-C(3)-(aMe-P)-F -D-CONH2] (Ac-[Ala(piperidin-4-yl)]SDC[1Nal][NMeChg][Phe(4-CH2NH2)](DOTA)[2Nal]NC[αMeP]FD-NH2; disulfide 4-10) belongs greater than 30 nM; to `CC(=O)N[C@H](C(=O)N[C@@H](CO)C(=O)N[C@@H](CC(=O)O)C(=O)N[C@H]1CSSC[C@@H](C(=O)N2CCC[C@@]2(C)C(=O)N[C@@H](Cc2ccccc2)C(=O)N[C@@H](CC(=O)O)C(=O)N[C@H](CCCCNC(=O)CN2CCN(CC(=O)O)CCN(CC(=O)O)CCN(CC(=O)O)CC2)C(N)=O)NC(=O)[C@H](CC(N)=O)NC(=O)[C@H](Cc2ccc3ccccc3c2)NC(=O)[C@H](CC2CCNCC2)NC(=O)[C@H](CC(C)(C)C)N(C)C(=O)[C@H](Cc2cccc3ccccc23)NC1=O)C1CCCCC1` [compound 182, Ac-Chg-S-D-C(3)-(1Nal)-(NMe-Tba)-[3-(4-piperidinyl)-Ala]-(2Nal)-N-C(3)-(aMe-P)-F -D-[D-Lys(DOTA)]-NH2] (Ac-[Chg]SDC[1Nal][NMetBuAla][Ala(piperidin-4-yl)][2Nal]NC[αMeP]FD[dK](DOTA)-NH2; disulfide 4-10), 5.39 nM.
